The values below come from ChEMBL document CHEMBL1201862, “PubChem BioAssay data set” (2004).

SMILES strings stand for the structures.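 Five concentrations, 48 hours, 96-well plates. At the GI50, growth is halved.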 Active and inactive are the calls of the source. No stated cut-off is given here; in the data, active = GI50 up to about 1.1 µM and inactive = higher.

Test systems include ACHN; COLO 205; HCT-15; K562; NCI-H226; NCI-H23; NCI-H460; OVCAR-8; RPMI-8226; SF-295; SK-MEL-28; SK-MEL-2; SK-OV-3; SW-620; UACC-257; UO-31; SR.
What all share (assay): NCI-60 cell line screen, 48 h

For `O=C(OCCCl)C1OC(n2cc(F)c(=O)[nH]c2=O)CC1O` (stereo not given), the GI50 in the assay on ACHN is > 100 µM (inactive); with COLO 205, > 100 µM (inactive); in the assay on HCT-15 it was over 100 µM; with K562, > 100 µM (inactive); in the assay with NCI-H226 it was > 100 µM (inactive); in the assay on NCI-H23, > 100 µM (inactive). Moreover, the GI50 with NCI-H460 was 92 µM (inactive); with OVCAR-8 it was > 100 µM (inactive); in the assay on RPMI-8226, > 100 µM (inactive); in the assay with SF-295, > 100 µM (inactive); with SK-MEL-28, > 100 µM (inactive); in the assay with SK-MEL-2, > 100 µM (inactive). The GI50 with SK-OV-3, in the assay with SW-620, in the assay on UACC-257 and in the assay on UO-31 was > 100 µM (inactive) each time.

For the compound `Cc1cc(C)nc(NS(=O)(=O)c2ccc(Nc3c4ccc(Cl)cc4nc4c(C(=O)NCCN(C)C)cccc34)cc2)n1`, the GI50 is > 100 µM (inactive) in the assay on ACHN; > 100 µM (inactive) in the assay on COLO 205; over 100 µM in the assay on HCT-15; 59.2 µM (inactive) with K562; > 100 µM (inactive) with NCI-H226; > 100 µM (inactive) in the assay on NCI-H23. The GI50 in the assay with NCI-H460, with OVCAR-8, in the assay on RPMI-8226, with SF-295, with SK-MEL-28 and with SK-OV-3 was > 100 µM (inactive) throughout. In addition, the GI50 with SR is 55.7 µM (inactive); in the assay with SW-620 it was > 100 µM (inactive); with UACC-257, > 100 µM (inactive); in the assay on UO-31, > 100 µM (inactive).

Regarding `CN(C)CCNC(=O)c1ccc(C(=O)NCCN(C)C)c2nc3ccccc3cc12`, the GI50 was 0.637 µM (active) in the assay on ACHN; 0.469 µM (active) with COLO 205; 2.96 µM in the assay on HCT-15; 0.61 µM (active) in the assay on K562; 1.16 µM (inactive) in the assay on NCI-H226; 1.71 µM (inactive) with NCI-H23. The GI50 in the assay with NCI-H460 is 0.384 µM (active); with OVCAR-8, 0.571 µM (active); with SF-295 it was 0.895 µM (active); with SK-MEL-28, 1.74 µM (inactive); in the assay on SK-MEL-2, 1.28 µM (inactive); in the assay on SK-OV-3 it was 0.916 µM (active). In addition, the GI50 with SR was 0.399 µM (active); with SW-620, 0.361 µM (active); in the assay with UACC-257, 1.62 µM (inactive); in the assay with UO-31 it was 4.81 µM (inactive).

As for `NCCCCCS(=O)(=O)O`, the GI50 is > 100 µM (inactive) in the assay with ACHN; > 100 µM (inactive) in the assay on COLO 205; over 100 µM in the assay with HCT-15; > 100 µM (inactive) with K562; > 100 µM (inactive) with NCI-H23; > 100 µM (inactive) in the assay with NCI-H460. Also, the GI50 with OVCAR-8, in the assay with SK-MEL-28, in the assay with SK-MEL-2, in the assay with SK-OV-3, in the assay with SR and in the assay on SW-620 was > 100 µM (inactive) each time. The GI50 in the assay on UACC-257 and in the assay on UO-31 was > 100 µM (inactive) throughout.

As for `O=C1c2ccccc2C2(O)Nc3cc(O)ccc3C12O` (stereo not given), the GI50 in the assay with ACHN was > 100 µM (inactive); in the assay on COLO 205, > 100 µM (inactive); in the assay with HCT-15, over 100 µM; in the assay with K562 it was > 100 µM (inactive); in the assay on NCI-H226 it was > 100 µM (inactive); with NCI-H23, > 100 µM (inactive). The GI50 in the assay with NCI-H460, in the assay on OVCAR-8, with RPMI-8226, in the assay with SF-295, in the assay with SK-MEL-28 and in the assay with SK-MEL-2 was > 100 µM (inactive) in each case. In addition, the GI50 in the assay on SK-OV-3 and in the assay on SW-620 was > 100 µM (inactive) throughout.

As to `Cc1ccc(C2CC(c3ccco3)=NN2c2ccccc2)o1` (stereo not given), the GI50 with ACHN was > 100 µM (inactive); in the assay with COLO 205, > 100 µM (inactive); in the assay on HCT-15, over 100 µM; in the assay with K562, > 100 µM (inactive); in the assay on NCI-H226 it was > 100 µM (inactive); in the assay with NCI-H23, > 100 µM (inactive). Also, the GI50 in the assay on NCI-H460, in the assay with OVCAR-8, in the assay on RPMI-8226, with SF-295, in the assay on SK-MEL-28 and in the assay on SK-MEL-2 was > 100 µM (inactive) in each case. Also, the GI50 with SR, in the assay on SW-620 and in the assay with UO-31 was > 100 µM (inactive) in each case.

On to `CCCCN(CCCC)C(=O)C(=O)C(C(=O)C(=O)OC)c1nc2ccccc2o1` (stereo not given), for which the GI50 with ACHN was > 100 µM (inactive); in the assay with COLO 205 it was > 100 µM (inactive); in the assay on HCT-15, 44.5 µM; with K562, 65.9 µM (inactive); in the assay on NCI-H226, > 100 µM (inactive); in the assay with NCI-H23, > 100 µM (inactive). Further, the GI50 with NCI-H460, with OVCAR-8, in the assay with SF-295, with SK-MEL-28, with SK-MEL-2 and in the assay on SK-OV-3 was > 100 µM (inactive) in each case. In addition, the GI50 in the assay on SR was 48.8 µM (inactive); with SW-620, 87.5 µM (inactive); in the assay on UACC-257, > 100 µM (inactive); with UO-31, > 100 µM (inactive).

In the case of `Cn1c2ccccc2c(=O)c2c([N+](=O)[O-])ccc(NCCN)c21`, the GI50 in the assay with ACHN was 6.3 µM (inactive); with COLO 205 it was 5.36 µM (inactive); with HCT-15, 12.9 µM; with NCI-H226, 13.7 µM (inactive); in the assay with NCI-H23 it was 10.7 µM (inactive); in the assay with NCI-H460, 6.92 µM (inactive). Moreover, the GI50 in the assay with OVCAR-8 is 7.19 µM (inactive); with SF-295, 12.5 µM (inactive); in the assay on SK-MEL-28, 15.3 µM (inactive); in the assay with SK-MEL-2, 15.3 µM (inactive); with SK-OV-3, 15.7 µM (inactive); with SR, 20.1 µM (inactive). In addition, the GI50 in the assay on SW-620 was 4.55 µM (inactive); in the assay on UACC-257, 13.6 µM (inactive); with UO-31, 5.64 µM (inactive).

Regarding `CC(=O)OCc1cc(OC(C)=O)cnc1COC(C)=O`, the GI50 is > 100 µM (inactive) with ACHN; > 100 µM (inactive) in the assay with COLO 205; over 100 µM in the assay on HCT-15; > 100 µM (inactive) in the assay with K562; > 100 µM (inactive) in the assay with NCI-H226; > 100 µM (inactive) in the assay with NCI-H23. The GI50 in the assay on NCI-H460, in the assay on OVCAR-8, in the assay with SF-295, in the assay with SK-MEL-28, in the assay with SK-MEL-2 and in the assay with SK-OV-3 was > 100 µM (inactive) each time. Further, the GI50 in the assay on SR, in the assay on SW-620, in the assay on UACC-257 and in the assay on UO-31 was > 100 µM (inactive) each time.

On to `CC1(C)C(=O)/C=C\C(=O)C(C)(C)C2=CC=C(O2)C(C)(C)C(=O)/C=C\C(=O)C(C)(C)C2=CC=C1O2`, for which the GI50 with ACHN is > 100 µM (inactive); in the assay on COLO 205 it was > 100 µM (inactive); with HCT-15, over 100 µM; in the assay with K562, > 100 µM (inactive); with NCI-H226, > 100 µM (inactive); in the assay on NCI-H23, > 100 µM (inactive). In addition, the GI50 with NCI-H460, in the assay with OVCAR-8, in the assay on SF-295, in the assay with SK-MEL-28, in the assay on SK-MEL-2 and in the assay with SK-OV-3 was > 100 µM (inactive) each time. In addition, the GI50 in the assay with SR, in the assay with SW-620 and with UACC-257 was > 100 µM (inactive) in each case.

For the compound `C/N=C(\NC(=S)N(C)C)N(C)C`, the GI50 in the assay with ACHN was > 100 µM (inactive); in the assay with HCT-15, over 100 µM; in the assay with K562 it was > 100 µM (inactive); in the assay with NCI-H226, 48.5 µM (inactive); in the assay with NCI-H23, > 100 µM (inactive); in the assay with NCI-H460, > 100 µM (inactive). The GI50 in the assay on OVCAR-8, in the assay on RPMI-8226, with SF-295, in the assay on SK-MEL-28, in the assay on SK-MEL-2 and with SK-OV-3 was > 100 µM (inactive) each time. Also, the GI50 in the assay with SR, in the assay with SW-620, in the assay on UACC-257 and in the assay with UO-31 was > 100 µM (inactive) throughout.

Take `O=C1/C(=C/c2ccc(C(=O)O)cc2)CNC/C1=C\c1ccc(C(=O)O)cc1`: the GI50 in the assay on ACHN is > 100 µM (inactive); with COLO 205, > 100 µM (inactive); in the assay on HCT-15, over 100 µM; in the assay with K562, > 100 µM (inactive); in the assay on NCI-H226, > 100 µM (inactive); with NCI-H23 it was > 100 µM (inactive). Besides, the GI50 with NCI-H460, with OVCAR-8, in the assay on RPMI-8226, in the assay with SF-295, in the assay with SK-MEL-28 and in the assay with SK-OV-3 was > 100 µM (inactive) in each case. For the same compound, the GI50 in the assay with SR, in the assay with UACC-257 and in the assay with UO-31 was > 100 µM (inactive) throughout.

For `COC1=CC(=O)C2C(C1=O)C(c1ccc(OC)c(OC)c1)[C@H]2C` (stereo not given in full), the GI50 in the assay with ACHN is 18.7 µM (inactive); in the assay on COLO 205, 19.1 µM (inactive); in the assay on HCT-15, 18.2 µM; with K562, 23.4 µM (inactive); in the assay on NCI-H226, > 100 µM (inactive); in the assay on NCI-H23, 19.9 µM (inactive). Moreover, the GI50 was > 100 µM (inactive) with NCI-H460; 20.6 µM (inactive) in the assay with OVCAR-8; 14.6 µM (inactive) in the assay on RPMI-8226; > 100 µM (inactive) with SF-295; 20.3 µM (inactive) in the assay with SK-MEL-28; > 100 µM (inactive) in the assay with SK-MEL-2. The GI50 with SK-OV-3 is > 100 µM (inactive); in the assay with SW-620, 20 µM (inactive); in the assay on UACC-257 it was 18.6 µM (inactive); in the assay with UO-31, > 100 µM (inactive).
